Assay results: PubChem BioAssay AID2305 (GlaxoSmithKline (GSK), 2010)
pIC50: −log10 of the molar value.

Each compound was assayed on P. falciparum 3D7 growth, pLDH absorbance (assay: P. falciparum 3D7 growth inhibition, dose response, strain 3D7 (AID 2305)).
CCN(CC)C(=NCCCCCCN=C(/N=C(/N)Nc1ccc(C)cc1)N(CC)CC)/N=C(/N)Nc1ccc(C)cc1 was tested, and the pIC50 was 6.27. Work on Brc1ccc(Nc2nc3ccccc3nc2Nc2ccc(Br)cc2)cc1 yielded a pIC50 of 6.11. N=C1SC(=Cc2cn[nH]c2-c2ccc(F)cc2)C(=O)N1c1nccs1 showed a pIC50 of 6.66. Cc1cccc2[nH]c(-c3ccc(-c4cccc(NC(=O)CN5CCN(C)CC5)c4)s3)nc12 gave a pIC50 of 6.08. Work on CC(=NN=C(N)N)c1ccc2ccc3ccccc3c2c1 yielded a pIC50 of 6.05. In the case of CCOC(=O)C1=C(C)NC2=C(C(=O)CC(C)(C)C2)C1c1ccc(Cl)cc1 (centres undefined), the pIC50 was 6.04. In the case of O=C(CN1CCN(C(=O)c2ccco2)CC1)Nc1ccc(Br)cc1Cl, the pIC50 was 6.11. Compound COc1cccc(NC(=O)Nc2ccc(C)c(-c3ccc(C(=O)Nc4ccncc4)cc3)c2)c1 has a pIC50 of 6.28. In the case of Cc1noc(-c2cccs2)c1C(=O)NCCc1cccc(Cl)c1, the pIC50 was 6.34. Compound CCCC(C)NC[C@@H](O)[C@H](Cc1ccccc1)NC(=O)c1cc(C2CCCC2)cc(N2CCCCS2(=O)=O)c1 (some centres undefined) has a pIC50 of 6.82. For CCCN(CCC)CCCNc1ccc(C(=O)Nc2ccc(C)c(F)c2)cc1[N+](=O)[O-], the pIC50 was 6.27. For COc1ccc2nccc([C@@H](O)CN3CCC(NC(=O)C(c4cc5ccccc5s4)N4CC(C)OC(C)C4)CC3)c2c1 (some centres undefined), the pIC50 was 6.01. In the case of CC(Cc1ccc(CNC(=O)c2ccc(CC(C)NCCc3cccc(Cl)c3)cc2)cc1)NCCc1cccc(Cl)c1 (centres undefined), the pIC50 was 6.15. COc1ccc(Nc2nccc(N3CCC(NC(=O)c4cccc(NC(C)=O)c4)C3)n2)cc1 (centres undefined) was tested, and the pIC50 was 6.00. In the case of Cc1cc(=O)[nH]c(-n2nc(C)cc2NC(=O)C(c2ccccc2)c2ccccc2)n1, the pIC50 was 6.08. With O=[N+]([O-])c1ccc(C(O)CNCCc2ccccc2)cc1OCc1ccccc1 (centres undefined) the pIC50 was 6.04. Cc1noc(C)c1-c1ccc2c(Nc3ccc(C(F)(F)F)cc3)c(C(N)=O)cnc2c1 was tested, and the pIC50 was 6.49. With Cc1cc(N(C)C)nc(Nc2ccc(NS(=O)(=O)c3ccccc3)cc2)n1 the pIC50 was 5.87. CN(C)Cc1ccc2cc(NC(=O)c3ccc(-c4ccc(Cl)cc4)cc3)ccc2n1 showed a pIC50 of 6.07. Work on Cc1cc(=O)c(C2CCC(c3ccc(Cl)cc3)CC2)c(C)[nH]1 (centres undefined) yielded a pIC50 of 6.13. Cc1ccc2[nH]c(C3CCCNC3)c(-c3ccncc3)c2c1 (centres undefined) was tested, and the pIC50 was 5.91. In the case of CCNc1cc(C)nc(Nc2ccc(NC(=O)c3ccccc3Cl)cc2)n1, the pIC50 was 6.00. Compound CC(=O)Nc1cccc(C(=O)Nc2cccc(-c3csc(-c4nc5ccccc5[nH]4)c3)c2)c1 has a pIC50 of 6.74. Work on O=C(NCCCCN1CCC(c2ccc(Br)cc2)CC1)c1ccc(NC(=O)c2ccc(Cl)cc2)cc1 yielded a pIC50 of 6.15. Work on CCOC(=O)c1c(SCc2cccc(F)c2F)[nH]c2ccccc2c1=O yielded a pIC50 of 6.19. With c1ccc(CCNCc2ccc(-c3ccc(CNC4CCN(Cc5ccccc5)CC4)cc3)nc2)cc1 the pIC50 was 6.35. CC[C@H](NC(=O)c1c(N)c(-c2sccc2Cl)nc2ccccc12)c1ccccc1 gave a pIC50 of 6.04. Compound Clc1ccc(CNc2ccnc(NCc3cccnc3N3CCCC3)n2)c(Cl)c1 has a pIC50 of 5.93. In the case of Cc1[nH]c(C)c(-c2ccc(-c3cccc(Cl)c3)nc2)c(=O)c1Cl, the pIC50 was 6.72. In the case of COc1cc(C2CCCCC2)c(OC)cc1CC1c2cc(O)c(Cl)cc2CCN1C (centres undefined), the pIC50 was 6.35. With Cc1cc(N[C@@H](CC(C)C)C(=O)NCc2cccs2)nc(NCCc2cccs2)n1 the pIC50 was 5.99. O=C(Nc1ccc(-c2nc3ccccc3[nH]2)cc1)c1ccc(S(=O)(=O)N2CCc3ccccc32)cc1 was tested, and the pIC50 was 6.13. Work on COc1ccc2nc(-c3ccccc3)cc(NCCCNc3cc(-c4ccccc4)nc4ccc(OC)cc34)c2c1 yielded a pIC50 of 6.92. With COc1ccc2ncc(F)c(CCN3C[C@H](CNCc4cc(F)c5c(c4)NC(=O)CO5)[C@H](O)C3)c2n1 the pIC50 was 6.17. CCCCCN1CCCCC(NS(=O)(=O)c2ccc(C(=O)Nc3cccc(C(F)(F)F)c3)cc2)C1 (centres undefined) was tested, and the pIC50 was 6.12. Compound O=C(NCCc1ccccc1)N(Cc1ccccc1-c1ccc(CNC2CCCC2)cc1)C1CCN(Cc2ccccc2)CC1 has a pIC50 of 5.95. Compound O=[N+]([O-])c1ccc(/C=N/Nc2cc(-c3ccccc3)nc3ccccc23)o1 has a pIC50 of 6.07. For CCOC(=O)c1cc(C(=O)NCCCCN2CCC(c3cn(C)c4ccccc34)CC2)ccc1-c1ccc(C(F)(F)F)cc1, the pIC50 was 5.92. With O=C(CN1CCC(NCc2cnc(-c3ccc(Cl)cc3)[nH]2)CC1)N1CCc2ccccc21 the pIC50 was 6.19. In the case of NC(=O)c1cc2nc(Nc3ccc(F)cc3)nc(Nc3ccc(S(N)(=O)=O)cc3)c2[nH]1, the pIC50 was 6.10. COc1ccc(CCN2CCC(NCc3cccc(N(C)C)c3)CC2)cc1 showed a pIC50 of 5.88. Cc1cnc(-c2ccc(NC(=O)N3CCc4cc5nccc(N6CCN7CCC[C@H]7C6)c5cc43)c3ccccc23)o1 was tested, and the pIC50 was 6.07. Cc1cccc2[nH]c(-c3cccc(-c4cccc(NC(=O)c5ccoc5)c4)c3)nc12 was tested, and the pIC50 was 6.66. CCc1ccc(CNCC(CCNc2cc(=O)c3ccccc3[nH]2)NCc2cc(Br)cc(Br)c2)o1 (centres undefined) gave a pIC50 of 6.19. Compound O=C(NCc1cccc(F)c1)Nc1ccc(-c2ccc(-c3nc4ccc(C(F)(F)F)cc4[nH]3)cc2)cc1 has a pIC50 of 6.11. N#Cc1ccc(-c2ccc(C(=O)Nc3ccc4c(c3)CCN(C3CCC3)CC4)nc2)cc1 showed a pIC50 of 6.15. O=C(/C=C/c1ccc(Cl)cc1)NCCCCCN1CCC(C(=O)Nc2ccc(Cl)cc2)CC1 gave a pIC50 of 6.08. Compound O=C(C=Cc1cccs1)Nc1ccc(-c2nc3ccccc3[nH]2)cc1 has a pIC50 of 5.94. CN(C)CCOc1cc(NC(=O)Nc2ccc(Cl)cc2C(F)(F)F)ccc1I gave a pIC50 of 6.03.
